Patent US9233978B2, “6-fused heteroaryldihydropyrimidines for the treatment and prophylaxis of hepatitis B virus infection” (Hoffmann-La Roche Inc., priority 2014, dated 2016)

Tested on: HBV
Assay: Anti-HBV activity in vitro, HepG2.2.15 cells, extracellular HBV DNA by qPCR
Format: cell-based
Conditions: Hepatitis B virus, HepG2.2.15, 120 h, HepG2.2.15 cells; HBV replication inhibited by 50%, extracellular HBV DNA by qPCR; five days after compound treatment; read-out: EC50
Text: HepG2.2.15 and HepDE19 are stably-transfected cell lines containing the HBV genome. Both cell lines are derived from the hepatoblastoma cell line Hep G2 (American Type Culture Collection, ATCC® HB-8065™) by the published procedures described in references: MA Selles et al. Proc. Natl. Acad. Sci. USA 1987, 84, 1005-1009 and H Guo et al. Journal of Virology 2007, 81, 12472-12484, respectively. Both cell lines were maintained in Dulbecco's modified Eagle's medium (DMEM)-F12 medium supplemented with 10% fetal bovine serum, 100 U/mL penicillin, 100 μg/mL streptomycin, and 0.5 mg/mL of G418.
While HepG2.2.15 cells constitutively support HBV replication and production of virus particles, HepDE19 cells are inducible by tetracycline. Addition of 1 μg/mL tetracycline in culture medium suppresses HBV replication in HepDE19 cells, whereas switching to tetracycline-free medium resumes this process.
HepG2.2.15 cells were seeded into 96-well plates (3×10^4 cells in 100 μL media per well) and incubated overnight at 37° C. The test compounds were serially half-log diluted in DMSO, then diluted 100 times in culture media. 100 μL of diluted compounds were added into the plates to reach 0.5% final concentration of DMSO in every well. Five days after compound treatment, culture supernatant was collected for further analysis.
For quantitative PCR detection of extracellular HBV DNA, 100 μL of culture supernatant was collected and processed in MagNA Pure 96 Nucleic Acid Purification System (Roche Applied Science) for viral DNA extraction. The extracted samples were subjected to HBV DNA quantification by qPCR.

Structure (SMILES) | EC50
COC(=O)C1=C(CN2CCN3C(=O)NC(=O)[C@H]3C2)NC(c2nccs2)=N[C@H]1c1ccc(F)cc1Cl [Example 15, Methyl (4R)-6-[[(8aR)-1,3-dioxo-5,6,8,8a-tetrahydroimidazo[1,5-a]pyrazin-7-yl]methyl]-4-(2-chloro-4-fluoro-phenyl)-2-thiazol-2-yl-1,4-dihydropyrimidine-5-carboxylate] | 110 nM
CCOC(=O)C1=C(CN2CCN3C(=O)N(CC(F)(F)C(=O)O)C[C@@H]3C2)NC(c2nccs2)=N[C@H]1c1ccc(F)c(F)c1C [Example 96, (S)-6-[(S)-2-(2-Carboxy-2,2-difluoro-ethyl)-3-oxo-hexahydro-imidazo[1,5-a]pyrazin-7-ylmethyl]-4-(3,4-difluoro-2-methyl-phenyl)-2-thiazol-2-yl-1,4-dihydro-pyrimidine-5-carboxylic acid ethyl ester] | 150 nM
CCOC(=O)C1=C(CN2CCN3C(=O)N(CC(C)(C)O)C[C@H]3C2)NC(c2nccs2)=N[C@H]1c1cccc(F)c1Cl (single isomer, unassigned) [Example 106A] | 32 nM
COC(=O)C1=C(CN2CCN3C(=O)N(CC(C)(C)C(=O)O)C[C@@H]3C2)NC(c2nccs2)=NC1c1ccc(Cl)cc1 (mixture of isomers) [Example 77, 3-[(8aS)-7-[[4-(4-chlorophenyl)-5-methoxycarbonyl-2-thiazol-2-yl-1,4-dihydropyrimidin-6-yl]methyl]-3-oxo-5,6,8,8a-tetrahydro-1H-imidazo[1,5-a]pyrazin-2-yl]-2,2-dimethyl-propanoic acid] | 146 nM
COC(=O)C1=C(CN2CCN3[C@H](CNS3(=O)=O)C2)NC(c2nccs2)=N[C@H]1c1ccc(F)cc1Cl [Example 17, Methyl (4R)-6-[[(3aS)-1,1-dioxo-2,3,3a,4,6,7-hexahydro-[1,2,5]thiadiazolo[2,3-a]pyrazin-5-yl]methyl]-4-(2-chloro-4-fluoro-phenyl)-2-thiazol-2-yl-1,4-dihydropyrimidine-5-carboxylate] | 39 nM
CCOC(=O)C1=C(CN2CCN3C(=O)N(C(C)(C)C)C[C@H]3[C@@H]2CO)NC(c2nccs2)=N[C@H]1c1cccc(F)c1Cl (single isomer, unassigned) [Example 103A] | 140 nM
CCOC(=O)C1=C(CN2CCN3C(=O)N(C(C)(C)C)C[C@H]3[C@@H]2C(=O)O)NC(c2nccs2)=N[C@H]1c1cccc(F)c1Cl (single isomer, unassigned) [Example 87A] | 62 nM
COC(=O)C1=C(CN2CCN3[C@@H](CNS3(=O)=O)C2)NC(c2nccs2)=N[C@H]1c1ccc(F)cc1Cl [Example 18, Methyl (4R)-6-[[(3aR)-1,1-dioxo-2,3,3a,4,6,7-hexahydro-[1,2,5]thiadiazolo[2,3-a]pyrazin-5-yl]methyl]-4-(2-chloro-4-fluoro-phenyl)-2-thiazol-2-yl-1,4-dihydropyrimidine-5-carboxylate] | 108 nM
CCOC(=O)C1=C(CN2CCN3C(=O)N(CC4CC4)C[C@H]3[C@@H]2C(=O)O)NC(c2nccs2)=N[C@H]1c1cccc(F)c1Cl (single isomer, unassigned) [Example 97A] | 37 nM
COC(=O)C1=C(CN2CCN3C(=O)N(CCCC(C)(C)CO)CC3C2)NC(c2nccs2)=N[C@H]1c1ccc(F)cc1Cl (stereo partly drawn) [Example 69, Methyl (4R)-4-(2-chloro-4-fluoro-phenyl)-6-[[2-(5-hydroxy-4,4-dimethyl-pentyl)-3-oxo-5,6,8,8a-tetrahydro-1H-imidazo[1,5-a]pyrazin-7-yl]methyl]-2-thiazol-2-yl-1,4-dihydropyrimidine-5-carboxylate] | 13 nM
COC(=O)C1=C(CN2CCN3C(=O)NC(=O)[C@@H]3C2)NC(c2nccs2)=N[C@H]1c1ccc(F)cc1Cl [Example 16, Methyl (4R)-6-[[(8aS)-1,3-dioxo-5,6,8,8a-tetrahydroimidazo[1,5-a]pyrazin-7-yl]methyl]-4-(2-chloro-4-fluoro-phenyl)-2-thiazol-2-yl-1,4-dihydropyrimidine-5-carboxylate] | 41 nM
CCOC(=O)C1=C(CN2CCN3C(=O)OC[C@H]3[C@@H]2C(=O)O)NC(c2nccs2)=N[C@H]1c1cccc(F)c1Cl (single isomer, unassigned) [Example 102A] | 147 nM
CCOC(=O)C1=C(CN2CCN3C(=O)N(C(C)(C)C(=O)OC)CC3C2)NC(c2nccs2)=N[C@H]1c1cccc(F)c1Cl (stereo partly drawn) [Example 23, Ethyl (4R)-4-(2-chloro-3-fluoro-phenyl)-6-[[2-(2-methoxy-1,1-dimethyl-2-oxo-ethyl)-3-oxo-5,6,8,8a-tetrahydro-1H-imidazo[1,5-a]pyrazin-7-yl]methyl]-2-thiazol-2-yl-1,4-dihydropyrimidine-5-carboxylate] | 3 nM
CCOC(=O)C1=C(CN2CCN3C(=O)CC[C@@H]3C2)NC(c2nccs2)=N[C@H]1c1ccc(F)cc1Br [Example 8, Ethyl (4R)-6-[[(8aR)-6-oxo-1,3,4,7,8,8a-hexahydropyrrolo[1,2-a]pyrazin-2-yl]methyl]-4-(2-bromo-4-fluoro-phenyl)-2-thiazol-2-yl-1,4-dihydropyrimidine-5-carboxylate] | 11 nM
COC(=O)C1=C(CN2CCN3C(=O)NC[C@H]3C2)NC(c2nccs2)=N[C@H]1c1ccc(F)cc1Cl [Example 12, Methyl (4R)-6-[[(8aS)-3-oxo-1,2,5,6,8,8a-hexahydroimidazo[1,5-a]pyrazin-7-yl]methyl]-4-(2-chloro-4-fluoro-phenyl)-2-thiazol-2-yl-1,4-dihydropyrimidine-5-carboxylate] | 149 nM
COC(=O)C1=C(CN2CCN3C(=O)N([C@H]4CCC[C@@H]4C(=O)O)C[C@@H]3C2)NC(c2nccs2)=N[C@H]1c1ccc(F)cc1Cl [Example 52, (1S,2S)-2-[(8aS)-7-[[(4R)-4-(2-chloro-4-fluoro-phenyl)-5-methoxycarbonyl-2-thiazol-2-yl-1,4-dihydropyrimidin-6-yl]methyl]-3-oxo-5,6,8,8a-tetrahydro-1H-imidazo[1,5-a]pyrazin-2-yl]cyclopentanecarboxylic acid] | 30 nM
COC(=O)C1=C(CN2CCN3C(=O)OC(C)(C)[C@@]3(CC(=O)O)C2)NC(c2nccs2)=N[C@H]1c1ccc(F)cc1Cl (single isomer, unassigned) [Example 90B] | 300 nM
CCOC(=O)C1=C(CN2CCN3C(=O)N(C(C)(C)C)C[C@@H]3[C@H]2C(=O)OC)NC(c2nccs2)=N[C@H]1c1cccc(F)c1Cl (single isomer, unassigned) [Compound 87B-1] | 4 nM
CCOC(=O)C1=C(CN2CCN3C(=O)N(C)C[C@@H]3[C@H]2C(=O)O)NC(c2nccs2)=N[C@H]1c1cccc(F)c1Cl (single isomer, unassigned) [Example 91A] | 150 nM
COC(=O)C1=C(CN2CCN3C(=O)OC[C@H]3C2)NC(c2nccs2)=N[C@H]1c1ccc(F)cc1Cl [Example 3, Methyl (4R)-6-[[(8aR)-3-oxo-5,6,8,8a-tetrahydro-1H-oxazolo[3,4-a]pyrazin-7-yl]methyl]-4-(2-chloro-4-fluoro-phenyl)-2-thiazol-2-yl-1,4-dihydropyrimidine-5-carboxylate] | 23 nM
COC(=O)C1=C(CN2CCN3C(=O)CC[C@@H]3C2)NC(c2nccs2)=N[C@H]1c1ccc(F)cc1Cl [Example 6, Methyl (4R)-6-[[(8aR)-6-oxo-1,3,4,7,8,8a-hexahydropyrrolo[1,2-a]pyrazin-2-yl]methyl]-4-(2-chloro-4-fluoro-phenyl)-2-thiazol-2-yl-1,4-dihydropyrimidine-5-carboxylate] | 14 nM
COC(=O)C1=C(CN2CCN3C(=O)N([C@H]4C[C@@H](C(=O)O)C4)CC3C2)NC(c2nccs2)=N[C@H]1c1ccc(F)cc1Cl (stereo in doubt) [Example 40, 3-[(8aR)-7-[[(4R)-4-(2-chloro-4-fluoro-phenyl)-5-methoxycarbonyl-2-thiazol-2-yl-1,4-dihydropyrimidin-6-yl]methyl]-3-oxo-5,6,8,8a-tetrahydro-1H-imidazo[1,5-a]pyrazin-2-yl]cyclobutanecarboxylic acid] | 34 nM
COC(=O)C1=C(CN2CCN3C(=O)CC[C@H]3C2)NC(c2nccs2)=N[C@H]1c1ccc(F)cc1Cl [Example 5, Methyl (4R)-6-[[(8aS)-6-oxo-1,3,4,7,8,8a-hexahydropyrrolo[1,2-a]pyrazin-2-yl]methyl]-4-(2-chloro-4-fluoro-phenyl)-2-thiazol-2-yl-1,4-dihydropyrimidine-5-carboxylate] | 159 nM
CCOC(=O)C1=C(CN2CCN3C(=O)N(CC(C)C)C[C@H]3[C@@H]2C(=O)O)NC(c2nccs2)=N[C@H]1c1cccc(F)c1Cl (single isomer, unassigned) [Example 101A] | 40 nM
CCOC(=O)C1=C(CN2CCN3C(=O)N([C@@H](C)CC(=O)O)C[C@@H]3C2)NC(c2nccs2)=N[C@H]1c1cccc(F)c1Cl [Example 58, (R)-6-[(S)-2-((S)-2-Carboxy-1-methyl-ethyl)-3-oxo-hexahydro-imidazo[1,5-a]pyrazin-7-ylmethyl]-4-(2-chloro-3-fluoro-phenyl)-2-thiazol-2-yl-1,4-dihydro-pyrimidine-5-carboxylic acid ethyl ester] | 19 nM
